Data reported in PMC10447463, “Data-mining unveils structure–property–activity correlation of viral infectivity enhancing self-assembling peptides” (Nature Communications, 2023).
Values joined by “and” are separate entries in the source; they are usually repeats but may differ in a detail not shown here. Equal values may be shown once.

Legend:
[1] = Aggregate analysis by widefield fluorescence microscopy; format: physicochemical; conditions: for Number of Aggregates / Aggregate Number: ThT-stained aggregates > 10 µm2 in 1330 µm × 1330 µm, 1 mg/mL 1 d, diluted to 0.1 mg/mL with 50 µM ThT, 3D object counter ImageJ, triplicate
Procedure: 4 µL of 1 mg/mL peptide fibrils solution is added to a 20 µL, 50 µM ThT–solution in PBS. The mixture is incubated for 15 min at RT to allow binding of ThT dye with β–sheet rich structures. For reference PBS (4 µL) was added instead of peptide fibril solution. The samples were placed in black UV Star® 384 microliter well–plates (Greiner bio–one). Fluorescence spectra were recorded on an Infinite® M1000 PRO microplate reader (Tecan) at λem = 488 nm upon excitation at λex = 440 nm with 10 nm bandwidths and multiple reads per well (3×3). Measurements were repeated in triplicates and averaged with standard deviation. A peptide fibril was considered as ThT-active if the fluorescence intensity was at least twice as strong compared to the control (PBS containing 10% DMSO). Zeta-Potential. For the determination of the surface charge of aggregated peptides zeta-potential measurements were conducted with a Zetasizer Nano ZS, Malvern Instruments. Unless stated otherwise the peptides were dissolved from DMSO (10 mg/mL) in PBS (pH 7.4) to concentration of 1 mg/mL and incubated for 1d at RT. Just before the measurement the 60 µL of the peptides were further diluted in 600 µL KCl (aq, 1 mM) in a 1 mL disposable folded capillary cells (DTS–1060, Zetasizer Nano series, Malvern). The zeta potential of the peptides was derived from the electrophoretic mobility based on the Smoluchowski formula. All measurements were averaged over two individually performed experiments and conducted in triplicates for each sample. Aggregate analysis. […] Furthermore, fluorescence microscopy was conducted by staining 1 µL preformed fibrils (1 mg/mL) with 9 µL ThT (50 µM). Brightfield microscopy was performed simultaneously to evaluate aggregation also for non ThT-active fibrils. The measurements were performed on a Leica DMi8 microscope with 10x air objective and equipped with a Leica MC170 HD camera with a filter setting λem = 527/30 nm upon excitation at λex = 480/40 nm) and processed with the Leica LASX software. To quantify size and number of microscopic aggregation of particles > 10 µm^2 at least 3 independently measured images were analyzed via the 3D object counter analysis tool of ImageJ, v 1.53f51. Sum–frequency generation. The SFG experiments were carried out with a femtosecond Ti: Sapphire amplified laser system (Spitfire Ace, Spectra–Physics, 800 nm, 40 fs, 1 kHz) with 5 W output power. We used 2 W to pump an optical parametric amplifier (TOPAS, light conversion) with a non–collinear difference frequency generation stage to generate broadband IR pulses. Another 1 W of the laser output passed through an etalon to generate narrowband visible pulses (10 cm^-1). The incident angles of the visible and IR beams were 36° and 41° with respect to the surface normal, respectively. The visible (13 µJ) and IR (5 µJ) pulses were overlapped spatially and temporally at the sample position. Subsequently, the generated SFG pulse was guided into a spectrograph (Acton SP 300i, Princeton Instruments), and detected with an EMCCD (Newton, Andor Technology). To avoid IR absorption of water vapor, we purged N2 for the measurement. All spectra were collected in the ssp (denoting s-, s- and p-polarized SFG, visible and IR, respectively) polarization combination. The spectra were normalized to the non–resonant signal taken from z–cut quartz after subtracting a background spectrum.
Table S8 Summary of aggregate analysis from widefield microscopy measurements (Figure S32). The Number of aggregated peptides, the median size area, average size area
and the cumulative total size area of all particles (> 10 µm2) in an area of 1330 µm × 1330 µm was determined via automated 3D object counting (ImageJ) in triplicate
measurements (Std. Dev.).
Aggregate Std. Dev. Std. Dev. Std. Dev. Std. Dev.
Sequence Abs. Inf. / Std. Dev. / Count Rate / Std. Dev. Number Aggregate Median Area Median Area Average Area Average Area Total Area/ Total Area/ […]

[2] = previously reported peptides only; ref sieste 2021 or Schilling2019; cited from earlier work
Description: Supplement 41467_2023_40663_MOESM7_ESM.zip/FigS17.csv, table | column: Conversion Rate / % ( from sieste 2021 or Schilling2019)

[3] = system: TZM-bl cells; format: cell-based; conditions: CellTiter-Glo, mean of n = 3 replicates
Procedure: The cell viability after addition of peptides to TZM–bl cells was studied via the CellTiter–Glo assay. To this end, 10,000 cells were seeded and on the next day serial diluted peptides were added. After 3 days the supernatant was removed and 100 µL CellTiter–Glo Reagent 1:1 diluted in PBS was added. After 10 min 50 µL was transferred to white microplate and luminescence was recorded by Orion microplate luminometer.
2. Cell Viability of Representatively Selected Peptides
Figure S 2 Cell Viability normalized to 100% metabolic activity as determined by CellTiterGlo Assay of 57 representatively selected peptides from the library. The selection represents infectivity enhancing and not […]
concentration. Error bars indicate standard deviation from triplicate measurements. Source data for Figure S2 […]
Figure S3 Cell Viability normalized to 100% metabolic activity determined by CellTiterGlo Assay of 20 peptides reported in literature. 33,34,43–48,35–42 Cell viability (> 80%) is maintained for all peptides at 1.3 µM concentration regardless of the preparation method, which is A PNF formation method by dilution of 10 mg/mL peptide stock in DMSO in PBS to 1 mg/mL or B preparation according to literature reported protocol (SI Section 8). Error bars indicate standard deviation from triplicate measurements. Source data for Figure S3 is provided.

With CSISIQI the “Number of Aggregates / Aggregate Number” value [1] was 123.
In the case of HHHHKIKIQINMYYYY, the “Number of Aggregates / Aggregate Number” value [1] was 234.
For CKIKQIINMWQ, the “Number of Aggregates / Aggregate Number” value [1] was 195.
With CKFKQFFNM the “Number of Aggregates / Aggregate Number” value [1] was 704 ± 90 and 704.
For CKIKQII, the “Number of Aggregates / Aggregate Number” value [1] was 76 ± 12 and 76.
In the case of HHHHKIKIKIKIWWWW [TM4], the “Conversion Rate / % ( from sieste 2021 or Schilling2019)” value [2] is given as 96%, the “Avg Area in 3 *(1330 µm *1330 µm)” value ([1]; Fig S8 panels A, C) is given as 50.02 and the “Log 10 Number of aggregates in 3 * (1330 µm *1330 µm)” value ([1]; Fig S8 panels A, C) is given as 2.649. The “Median Area in 3 * (1330 µm *1330 µm)” value ([1]; Fig S8 panels A, C) was 24.51, the “log Avg Area in 3 * ( (1330 µm *1330 µm))” value ([1]; Fig S8 panels A, C) was 1.699 and the “log Median Area in 3 * ( (1330 µm *1330 µm))” value ([1]; Fig S8 panels A, C) was 1.389. For the same substance, the “log Total Area of all particles in 3 * (1330 µm *1330 µm)” value ([1]; Fig S8 panels A, C) was 4.348, the “Number of aggregates in 3 * (1330 µm *1330 µm)” value ([1]; Fig S8 panels A, C, 3 fields of 1330 µm x 1330 µm) was 445.7 and the “Avg Area in 3 *(1330 µm *1330 µm)” value ([1]; Fig S8 panels B, D, average aggregate area, 3 fields of 1330 µm x 1330 µm) was 50.02. For the same substance, the “Median Area in 3 * (1330 µm *1330 µm)” value ([1]; Fig S8 panels B, D, median aggregate area, 3 fields of 1330 µm x 1330 µm) was 24.51, the “Total Area of all particles in 3 * (1330 µm *1330 µm)” value ([1]; Fig S8 panels B, D, total area of all particles, 3 fields of 1330 µm x 1330 µm) was 22293.86733 and the “Number of aggregates in 3 * (1330 µm *1330 µm)” value ([1]; Fig S8 panels B, D, widefield fluorescence microscopy, 3 fields of 1330 µm x 1330 µm) was 445.7. The “viability 0.26 µM” value ([3]; peptide 0.26 µM) was 89.63, the “viability 1.3 µM” value ([3]; peptide 1.3 µM) was 83.12 and the “viability 6.5 µM” value ([3]; peptide 6.5 µM) was 68.76.
For RGDSGGGGGGKIKIQIC, the “Number of Aggregates / Aggregate Number” value [1] was 72.
For CKAKAQANMWQ, the “Number of Aggregates / Aggregate Number” value [1] was 6.
With KIKIQIC the “Number of Aggregates / Aggregate Number” value [1] was 82.
In the case of CKFKFQFW, the “Number of Aggregates / Aggregate Number” value [1] was 517.
For HHHHKIKIKIKIWWWW, the “Number of Aggregates / Aggregate Number” value [1] was 446.
For HHHHKIKIKIKIYYYY, the “Number of Aggregates / Aggregate Number” value [1] was 147.
With CQFQFQF the “Number of Aggregates / Aggregate Number” value [1] was 46.
For CKIKIQI, the “Number of Aggregates / Aggregate Number” value [1] was 317 ± 36 and 317.
